Results from PMC2820425 (Molecular Biology of the Cell, 2010).

Legend:
DYN-1 = biological target: T1, DYN-1 (Caenorhabditis elegans, UniProt P39055); experiment: […] release from [γ-32P]GTP, charcoal assay; format: biochemical; conditions: 1 mM GTP, 150 mM NaCl, with or without lipid; labelled compound
T1 sequence (P39055 1-830): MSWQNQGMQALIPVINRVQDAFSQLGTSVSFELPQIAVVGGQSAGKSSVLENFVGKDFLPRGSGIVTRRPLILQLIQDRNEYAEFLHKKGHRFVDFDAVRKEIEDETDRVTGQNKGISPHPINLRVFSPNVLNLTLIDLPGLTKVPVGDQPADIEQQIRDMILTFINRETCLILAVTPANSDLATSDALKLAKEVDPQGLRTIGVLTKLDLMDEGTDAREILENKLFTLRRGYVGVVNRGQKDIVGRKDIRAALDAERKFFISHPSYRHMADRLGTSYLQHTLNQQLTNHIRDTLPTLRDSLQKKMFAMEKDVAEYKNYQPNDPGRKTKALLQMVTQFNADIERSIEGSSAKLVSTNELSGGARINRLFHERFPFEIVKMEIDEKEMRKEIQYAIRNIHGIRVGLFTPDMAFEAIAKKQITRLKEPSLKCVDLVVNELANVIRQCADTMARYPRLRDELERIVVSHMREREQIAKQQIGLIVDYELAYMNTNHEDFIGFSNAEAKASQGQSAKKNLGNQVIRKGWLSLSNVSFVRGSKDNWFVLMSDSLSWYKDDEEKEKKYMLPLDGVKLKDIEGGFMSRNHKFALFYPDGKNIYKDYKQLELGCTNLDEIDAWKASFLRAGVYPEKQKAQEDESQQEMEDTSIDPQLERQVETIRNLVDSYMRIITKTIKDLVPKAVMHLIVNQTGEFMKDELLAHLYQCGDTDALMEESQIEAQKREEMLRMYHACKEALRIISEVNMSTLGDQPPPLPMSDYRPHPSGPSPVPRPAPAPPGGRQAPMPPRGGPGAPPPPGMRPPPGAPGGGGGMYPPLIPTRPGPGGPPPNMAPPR

rat dynamin = biological target: T2, rat dynamin (Rattus norvegicus, UniProt P21575); experiment: […] release from [γ-32P]GTP, charcoal assay; format: biochemical; conditions: 1 mM GTP, 150 mM NaCl, with or without lipid; labelled compound
T2 sequence (P21575 1-864): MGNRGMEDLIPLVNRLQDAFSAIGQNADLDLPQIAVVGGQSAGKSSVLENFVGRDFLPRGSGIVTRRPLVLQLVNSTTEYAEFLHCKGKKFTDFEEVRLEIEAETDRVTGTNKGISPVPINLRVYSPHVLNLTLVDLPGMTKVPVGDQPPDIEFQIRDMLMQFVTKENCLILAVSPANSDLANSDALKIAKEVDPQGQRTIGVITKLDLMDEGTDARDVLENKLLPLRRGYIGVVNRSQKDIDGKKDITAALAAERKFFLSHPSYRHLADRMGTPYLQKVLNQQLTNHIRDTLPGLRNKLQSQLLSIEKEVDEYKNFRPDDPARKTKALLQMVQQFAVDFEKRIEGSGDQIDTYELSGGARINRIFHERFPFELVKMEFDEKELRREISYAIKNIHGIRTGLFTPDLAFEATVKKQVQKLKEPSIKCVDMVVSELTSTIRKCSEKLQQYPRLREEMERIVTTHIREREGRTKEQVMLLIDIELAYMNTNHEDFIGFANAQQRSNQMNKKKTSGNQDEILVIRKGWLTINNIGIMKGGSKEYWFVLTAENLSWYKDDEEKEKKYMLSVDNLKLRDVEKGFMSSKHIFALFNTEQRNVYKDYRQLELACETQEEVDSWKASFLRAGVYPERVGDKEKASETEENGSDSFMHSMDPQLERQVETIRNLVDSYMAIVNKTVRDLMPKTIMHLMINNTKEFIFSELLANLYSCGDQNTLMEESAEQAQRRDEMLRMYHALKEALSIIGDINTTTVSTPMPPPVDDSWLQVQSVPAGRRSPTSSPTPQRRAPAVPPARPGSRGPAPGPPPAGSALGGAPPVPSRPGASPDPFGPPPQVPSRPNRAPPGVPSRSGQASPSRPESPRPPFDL

[1] = biological target: the molecule itself; experiment: cryo-TEM of protein incubated with liposomes

Molecule: Nc1nc2c(ncn2[C@@H]2O[C@H](COP(=O)(O)OP(=O)(O)OP(=O)(O)O)[C@@H](O)[C@H]2O)c(=O)[nH]1 [GTP]
- 32P release from [γ-32P]GTP, charcoal assay (DYN-1): C. elegans DYN-1 displayed a low basal-level GTP hydrolysis activity
- 32P release from [γ-32P]GTP, charcoal assay (rat dynamin): DYN-1 displayed a low basal-level GTP hydrolysis activity as rat dynamin did

B1: recombinant DYN-1(G40E) purified from SF21 insect cells (natural protein, C. elegans, UniProt P39055 1-830, looked up)
chain: MSWQNQGMQALIPVINRVQDAFSQLGTSVSFELPQIAVVEGQSAGKSSVLENFVGKDFLPRGSGIVTRRPLILQLIQDRNEYAEFLHKKGHRFVDFDAVRKEIEDETDRVTGQNKGISPHPINLRVFSPNVLNLTLIDLPGLTKVPVGDQPADIEQQIRDMILTFINRETCLILAVTPANSDLATSDALKLAKEVDPQGLRTIGVLTKLDLMDEGTDAREILENKLFTLRRGYVGVVNRGQKDIVGRKDIRAALDAERKFFISHPSYRHMADRLGTSYLQHTLNQQLTNHIRDTLPTLRDSLQKKMFAMEKDVAEYKNYQPNDPGRKTKALLQMVTQFNADIERSIEGSSAKLVSTNELSGGARINRLFHERFPFEIVKMEIDEKEMRKEIQYAIRNIHGIRVGLFTPDMAFEAIAKKQITRLKEPSLKCVDLVVNELANVIRQCADTMARYPRLRDELERIVVSHMREREQIAKQQIGLIVDYELAYMNTNHEDFIGFSNAEAKASQGQSAKKNLGNQVIRKGWLSLSNVSFVRGSKDNWFVLMSDSLSWYKDDEEKEKKYMLPLDGVKLKDIEGGFMSRNHKFALFYPDGKNIYKDYKQLELGCTNLDEIDAWKASFLRAGVYPEKQKAQEDESQQEMEDTSIDPQLERQVETIRNLVDSYMRIITKTIKDLVPKAVMHLIVNQTGEFMKDELLAHLYQCGDTDALMEESQIEAQKREEMLRMYHACKEALRIISEVNMSTLGDQPPPLPMSDYRPHPSGPSPVPRPAPAPPGGRQAPMPPRGGPGAPPPPGMRPPPGAPGGGGGMYPPLIPTRPGPGGPPPNMAPPR
- binding result [1]: binds
